# Source: the supplement of paper PMC10307832
# How the values were obtained:
# Experiment in all cases: relative viability (nuclei count vs DMSO), 5 days (fraction); higher = more cells survive
# NCI-H661 = tested on: NCI-H661
# In short: (§1)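 Relative viability equals treated-well nuclei counts divided by vehicle-well nuclei counts. Counts came from 4× images of lung cancer cell lines grown in 1536-well plates for 5 days after pin-tool dosing on the day after seeding. Dosing used one drug alone or a fixed anchor-drug dose plus five library-drug doses (not always all listed) in √10 steps, and values are medians of duplicate plates.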
# NCI-H1915 = tested on: NCI-H1915
# In short: as §1
# NCI-H1666 = tested on: NCI-H1666
# In short: as §1
# LCLC-97TM1 = tested on: LCLC-97TM1
# In short: as §1
# NCI-H838 = tested on: NCI-H838
# In short: as §1
# EKVX = tested on: EKVX
# In short: as §1
# NCI-H1975 = tested on: NCI-H1975
# In short: as §1
# SK-LU-1 = tested on: SK-LU-1
# In short: as §1
# NCI-H647 = tested on: NCI-H647
# In short: as §1
# PC-3 [JPC-3] = tested on: PC-3 [JPC-3]
# In short: as §1
# NCI-H23 = tested on: NCI-H23
# In short: as §1
# NCI-H441 = tested on: NCI-H441
# In short: as §1
# NCI-H460 = tested on: NCI-H460
# In short: as §1
# NCI-H727 = tested on: NCI-H727
# In short: as §1
# NCI-H596 = tested on: NCI-H596
# In short: as §1
# NCI-H1437 = tested on: NCI-H1437
# In short: as §1
# NCI-H358 = tested on: NCI-H358
# In short: as §1
# NCI-H2342 = tested on: NCI-H2342
# In short: as §1
# NCI-H322M = tested on: NCI-H322M
# In short: as §1
# NCI-H520 = tested on: NCI-H520
# In short: as §1
# NCI-H1650 = tested on: NCI-H1650
# In short: as §1
structure (smiles),measurement,setting,value
CN1CCN(CCOc2cc(OC3CCOCC3)c3c(Nc4c(Cl)ccc5c4OCO5)ncnc3c2)CC1 [Saracatinib] + COc1cc2c(Oc3ccc(NC(=O)C4(C(=O)Nc5ccc(F)cc5)CC4)cc3F)ccnc2cc1OCCCN1CCOCC1 [Foretinib] (partner 0.25 µM),relative viability,NCI-H661; first compound 0.02 µM,1.02
same,relative viability,NCI-H661; first compound 0.2 µM,0.948
same,relative viability,NCI-H661; first compound 0.6325 µM,0.993
same,relative viability,NCI-H661; first compound 2 µM,0.45
same,relative viability,NCI-H1915; first compound 0.02 µM,1.05
same,relative viability,NCI-H1915; first compound 0.2 µM,1.05
same,relative viability,NCI-H1915; first compound 0.6325 µM,1.12
same,relative viability,NCI-H1915; first compound 2 µM,0.96
same,relative viability,NCI-H1666; first compound 0.02 µM,1.04
same,relative viability,NCI-H1666; first compound 0.2 µM,0.836
same,relative viability,NCI-H1666; first compound 0.6325 µM,1.27
same,relative viability,NCI-H1666; first compound 2 µM,1.14
same,relative viability,LCLC-97TM1; first compound 0.02 µM,1.06
same,relative viability,LCLC-97TM1; first compound 0.2 µM,0.763
same,relative viability,LCLC-97TM1; first compound 0.6325 µM,0.96
same,relative viability,LCLC-97TM1; first compound 2 µM,0.825
same,relative viability,NCI-H838; first compound 0.02 µM,1.05
same,relative viability,NCI-H838; first compound 0.2 µM,0.908
same,relative viability,NCI-H838; first compound 0.6325 µM,0.938
same,relative viability,NCI-H838; first compound 2 µM,0.916
same,relative viability,EKVX; first compound 0.02 µM,0.866
same,relative viability,EKVX; first compound 0.6325 µM,0.268
same,relative viability,EKVX; first compound 2 µM,0.401
same,relative viability,NCI-H1975; first compound 0.02 µM,0.956
same,relative viability,NCI-H1975; first compound 0.2 µM,0.85
same,relative viability,NCI-H1975; first compound 0.6325 µM,0.96
same,relative viability,NCI-H1975; first compound 2 µM,0.631
same,relative viability,SK-LU-1; first compound 0.02 µM,0.602
same,relative viability,SK-LU-1; first compound 0.2 µM,0.51
same,relative viability,SK-LU-1; first compound 0.6325 µM,0.415
same,relative viability,SK-LU-1; first compound 2 µM,0.298
same,relative viability,NCI-H647; first compound 0.02 µM,0.997
same,relative viability,NCI-H647; first compound 0.2 µM,1.14
same,relative viability,NCI-H647; first compound 0.6325 µM,1.04
same,relative viability,NCI-H647; first compound 2 µM,1.12
same,relative viability,PC-3 [JPC-3]; first compound 0.02 µM,1.04
same,relative viability,PC-3 [JPC-3]; first compound 0.2 µM,0.889
same,relative viability,PC-3 [JPC-3]; first compound 0.6325 µM,0.693
same,relative viability,PC-3 [JPC-3]; first compound 2 µM,0.396
same,relative viability,NCI-H23; first compound 0.02 µM,0.825
same,relative viability,NCI-H23; first compound 0.2 µM,0.815
same,relative viability,NCI-H23; first compound 0.6325 µM,1
same,relative viability,NCI-H23; first compound 2 µM,0.545
same,relative viability,NCI-H441; first compound 0.02 µM,1.04
same,relative viability,NCI-H441; first compound 0.2 µM,0.985
same,relative viability,NCI-H441; first compound 0.6325 µM,1.08
same,relative viability,NCI-H441; first compound 2 µM,1.13
same,relative viability,NCI-H460; first compound 0.02 µM,1.02
same,relative viability,NCI-H460; first compound 0.2 µM,0.882
same,relative viability,NCI-H460; first compound 0.6325 µM,1.06
same,relative viability,NCI-H460; first compound 2 µM,0.867
same,relative viability,NCI-H727; first compound 0.02 µM,0.814
same,relative viability,NCI-H727; first compound 0.2 µM,1.04
same,relative viability,NCI-H727; first compound 0.6325 µM,0.923
same,relative viability,NCI-H727; first compound 2 µM,0.553
same,relative viability,NCI-H596; first compound 0.02 µM,0.874
same,relative viability,NCI-H596; first compound 0.2 µM,0.641
same,relative viability,NCI-H596; first compound 0.6325 µM,0.826
same,relative viability,NCI-H596; first compound 2 µM,0.591
same,relative viability,NCI-H1437; first compound 0.02 µM,1.27
same,relative viability,NCI-H1437; first compound 0.2 µM,1.22
same,relative viability,NCI-H1437; first compound 0.6325 µM,1.3
same,relative viability,NCI-H1437; first compound 2 µM,1.3
same,relative viability,NCI-H358; first compound 0.02 µM,0.761
same,relative viability,NCI-H358; first compound 0.2 µM,0.534
same,relative viability,NCI-H358; first compound 0.6325 µM,0.421
same,relative viability,NCI-H358; first compound 2 µM,0.213
same,relative viability,NCI-H2342; first compound 0.02 µM,0.84
same,relative viability,NCI-H2342; first compound 0.2 µM,0.856
same,relative viability,NCI-H2342; first compound 0.6325 µM,1.11
same,relative viability,NCI-H2342; first compound 2 µM,0.925
same,relative viability,NCI-H322M; first compound 0.02 µM,1.01
same,relative viability,NCI-H322M; first compound 0.2 µM,0.921
same,relative viability,NCI-H322M; first compound 0.6325 µM,0.826
same,relative viability,NCI-H322M; first compound 2 µM,0.403
same,relative viability,NCI-H520; first compound 0.02 µM,0.761
same,relative viability,NCI-H520; first compound 0.6325 µM,0.611
same,relative viability,NCI-H520; first compound 2 µM,0.523
same,relative viability,NCI-H1650; first compound 0.02 µM,0.948
same,relative viability,NCI-H1650; first compound 0.2 µM,0.775
same,relative viability,NCI-H1650; first compound 0.6325 µM,0.46
same,relative viability,NCI-H1650; first compound 2 µM,0.456
